Measured values published in patent US11406590B2, “Essential oil emulsion nostril treatment composition” (King Abdulaziz University, priority 2020, dated 2022).

System: Salmonella enterica subsp. Enterica serovar typhimurium (ATCC 29629, TA 1535)
Test: Ames test of liposomal preparation
Type: cell-based
Details: 20 and 200 nmol
Experimental: To evaluate the safety of the liposomal preparation described in Example 1, the Ames test is performed according to the procedure described by, and incorporated by reference to, Ames et al, Carcinogens are mutagens: their detection and classification. Environ Health Perspect. 1973 December; 6:115-8; Mortelmans and Zeiger, The Ames Salmonella/microsome mutagenicity assay. Mutat Res. 2000 Nov. 20; 455(1-2):29-60.
Briefly, the test organism Salmonella enterica subsp. Enterica serovar typhimurium (ATCC® 29629-Strain Designations: TA 1535), an auxotrophic mutant, is provided by ATCC, Manassas, USA. This auxotrophic isolate has a mutation in its DNA which prevents it from producing histidine and thus requires histidine for its growth.
Potentially mutagenic substances are identified by contacting them with this auxotrophic mutant and measuring the frequency of mutations that restore the ability of this auxotroph to grown a medium not containing histidine. […]
A degree of mutagenicity of the liposome preparation is determined by comparison of the number of colonies appearing on the negative and positive controls and the number of colonies on the solid medium containing different concentrations of the liposome preparation containing the essential oil-in-water emulsion of Example 1.

## CC[n+]1c(-c2ccccc2)c2cc(N)ccc2c2ccc(N)cc21 [ethidium bromide]
  Colony counts on positive control plates: significant increase
